Like-named read-outs stand apart in the source and are kept apart here.
Columns and labels:
[1] = archetypal comparison complex; cited from earlier work
[2] = design: method as in earlier work; conditions: reference for 1O2 sensitization; ref 4 (SI), Tanielian et al., 1996; cited from earlier work
NDM-1 [3] = target: T1, NDM-1 (Klebsiella pneumoniae, UniProt C7C422); conditions: read-out: Km(Nitrocefin); NDM-1 2 nM, 25 °C
Text: (4 pictures or pasted objects on this page, not shown here)

NDM-1 [4] = target: T1, NDM-1; conditions: read-out: Km(Nitrocefin); previously reported; ref 5 (SI); cited from earlier work

T1 sequence (C7C422 31-270 limits assumed): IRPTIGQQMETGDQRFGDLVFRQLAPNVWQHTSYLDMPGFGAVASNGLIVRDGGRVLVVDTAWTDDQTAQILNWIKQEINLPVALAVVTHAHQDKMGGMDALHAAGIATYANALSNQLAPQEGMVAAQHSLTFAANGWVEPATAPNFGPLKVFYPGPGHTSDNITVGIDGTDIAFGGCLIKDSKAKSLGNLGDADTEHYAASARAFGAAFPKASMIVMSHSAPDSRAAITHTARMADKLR

SMILES	Luminescence lifetime of excited state [1] [ns]	1O2 quantum yield (ΦΔ) [2]	Km (NDM-1 [3]) [µM]	Km (NDM-1 [4]) [µM]
[Cl][Ru][Cl].c1ccc(-c2ccccn2)nc1.c1ccc(-c2ccccn2)nc1.c1ccc(-c2ccccn2)nc1 [[Ru(bpy)3]Cl2, tris(2,2’-bipyridyl)ruthenium(II) dichloride]	510	0.87	–	–
O=C(Cc1cccs1)N[C@@H]1C(=O)N2C(C(=O)O)=C(/C=C/c3ccc([N+](=O)[O-])cc3[N+](=O)[O-])CS[C@H]12 [nitrocefin]	–	–	3.1 ± 0.5	3.2
